Assay results published in patent US4093796A, “Antibiotic derivatives of polyene macrolide group and method of obtaining the same” (Politechnika Gdanska, priority 1971, dated 1978).
Values after ≈ are worked out from the molar mass of the structure shown.

Tests used:
tested microorganisms = assay: antimicrobial activity in liquid nutrient medium (serial dilution, turbidity); format: cell-based
Procedure: (b) determination of the antimicrobial activity of antibiotics and their derivatives in liquid nutrient medium-- table 2.
The antimicrobial activity of antibiotics and their derivatives in liquid nutrient medium has been determined by making serial dilutions of antibiotics in the manner described above and by mixing of 0.5 ml of antibiotic solution with 4.5 ml of medium inoculated with tested microorganisms and prepared after Sabouraud without agar and with the addition of tarchocilin in the amount of 25 mg per 1 l. Solutions were allowed to stand for 48 hours at the temperature of 32° C.
Minimum concentration that inhibits the microorganisms growth has been determined on the basis of turbidity determined by extinction growth at […]; results are compared in table 2.

Saccahromyces cerevisiae = assay: antimicrobial activity in solid nutrient medium (serial dilution), Saccharomyces cerevisiae; format: cell-based; details: solid Sabouraud medium, 36° C, 24 hours
Procedure: (§1) (a) determination of the antimicrobial activity of antibiotics and their derivatives in solid nutrient medium-- table 1
(§2) The antimicrobial activity in solid nutrient medium has been estimated with the aid of the serial dilution method as follows: 1 mg of antibiotic was dissolved in 1 ml of dimethylsulphoxide and diluted with 9 ml of sterile water. Serial dilutions in water had been performed and the minimum concentration inhibiting the growth of standard strains of Candida albicans and Saccahromyces cerevisiae estimated: 0.5 ml of the antibiotic solution was mixed in a Petri dish 10 cm in diameter with 9.5 ml of Sabouraud medium having a temperature of about 60° C. After mixing, solidifying the nutrient agar and inoculating the test microorganism on the surface, they were incubated at 36° C for 24 hours. The minimum inhibitory concentration was stated on the basis of observed absence of microorganism growth.

Candida albicans [1] = assay: inhibition of pathogenic strains isolated from contaminated human members, Candida albicans; format: cell-based; details: 12 strains studied
Procedure: (§3) Studies were also conducted on the activity of the glucose derivative of nystatin, as compared with nystatin, in relation to a series of pathogenic strains of Candida and Geotrichum isolated from contaminated human members.

Candida sp. = assay: inhibition of pathogenic strains isolated from contaminated human members, Candida sp.; format: cell-based; details: 8 strains studied
Procedure: as §3

Geotrichum sp. = assay: inhibition of pathogenic strains isolated from contaminated human members, Geotrichum sp.; format: cell-based; details: 12 strains studied
Procedure: as §3

Candida albicans [2] = assay: antimicrobial activity in solid nutrient medium (serial dilution), Candida albicans; format: cell-based; details: solid Sabouraud medium, 36° C, 24 hours
Procedure: as §1, §2

[3] = liquid medium after Sabouraud without agar, 48 hours, 32° C, extinction at 660 mm

CC1C=CC=CCCC=CC=CC=CC=CC(OC2OC(C)C(O)C(N)C2O)CC2OC(O)(CC(O)C(O)CCC(O)CC(O)CC(O)CC(=O)OC(C)C(C)C1O)CC(O)C2C(=O)O (stereo not shown) [nystatin A1]
MIC (tested microorganisms; 48 h): 0.5 µg/mL (≈ 0.54 µM)

candicidin
MIC (tested microorganisms; [3]): 0.001 µg/mL

C[C@@H]1[C@H](O)[C@@H](C)/C=C/C=C/CC/C=C/C=C/C=C/C=C/[C@H](O[C@@H]2O[C@H](C)[C@@H](O)[C@H](NC3O[C@H](CO)[C@@H](O)[C@H](O)[C@H]3O)[C@@H]2O)C[C@@H]2O[C@](O)(C[C@@H](O)[C@H](O)CC[C@@H](O)C[C@@H](O)C[C@@H](O)CC(=O)O[C@H]1C)C[C@H](O)[C@H]2C(=O)[O-].[Na+] (stereo partly shown)
solubility / dispersion in water: form true solutions free of colloids

C[C@@H]1[C@H](O)[C@@H](C)/C=C/C=C/CC/C=C/C=C/C=C/C=C/[C@H](O[C@@H]2O[C@H](C)[C@@H](O)[C@H](NC3O[C@H](CO)[C@@H](O[C@H]4O[C@H](CO)[C@@H](O)[C@H](O)[C@H]4O)[C@H](O)[C@H]3O)[C@@H]2O)C[C@@H]2O[C@](O)(C[C@@H](O)[C@H](O)CC[C@@H](O)C[C@@H](O)C[C@@H](O)CC(=O)O[C@H]1C)C[C@H](O)[C@H]2C(=O)[O-].[Na+] (stereo partly shown)
solubility / dispersion in water: form true solutions free of colloids

C[C@@H]1[C@H](O)[C@@H](C)/C=C/C=C/CC/C=C/C=C/C=C/C=C/C(O[C@H]2O[C@H](C)[C@@H](O)[C@H](N)[C@@H]2O)CC2O[C@](O)(CC(O)C(O)CCC(O)CC(O)CC(O)CC(=O)O[C@H]1C)CC(O)C2C(=O)O (stereo partly shown) [nystatin]
Minimum inhibitory concentration against cerevisiae (Saccahromyces cerevisiae): 2 µg/mL (≈ 2.16 µM) | Number of strains the growth of which has been inhibited (Candida albicans [1]; Candida albicans after 24 hrs, 1.56 mcg/ml): 1 strains | Number of strains the growth of which has been inhibited (Candida albicans [1]; Candida albicans after 24 hrs, 3.12 mcg/ml): 11 strains | Number of strains the growth of which has been inhibited (Candida albicans [1]; Candida albicans after 24 hrs, 6.25 mcg/ml): 0 strains | Number of strains the growth of which has been inhibited (Candida albicans [1]; Candida albicans after 24 hrs, 12.5 mcg/ml): 0 strains | Number of strains the growth of which has been inhibited (Candida albicans [1]; Candida albicans after 24 hrs, 25.0 mcg/ml): 0 strains | Number of strains the growth of which has been inhibited (Candida albicans [1]; Candida albicans after 24 hrs, 50.0 mcg/ml): 0 strains | Number of strains the growth of which has been inhibited (Candida albicans [1]; Candida albicans after 48 hrs, 1.56 mcg/ml): 0 strains | Number of strains the growth of which has been inhibited (Candida albicans [1]; Candida albicans after 48 hrs, 3.12 mcg/ml): 2 strains | Number of strains the growth of which has been inhibited (Candida albicans [1]; Candida albicans after 48 hrs, 6.25 mcg/ml): 10 strains | Number of strains the growth of which has been inhibited (Candida albicans [1]; Candida albicans after 48 hrs, 12.5 mcg/ml): 0 strains | Number of strains the growth of which has been inhibited (Candida albicans [1]; Candida albicans after 48 hrs, 25.0 mcg/ml): 0 strains | Number of strains the growth of which has been inhibited (Candida albicans [1]; Candida albicans after 48 hrs, 50.0 mcg/ml): 0 strains | Number of strains the growth of which has been inhibited (Candida sp.; Candida sp. after 24 hrs, 1.56 mcg/ml): 2 strains | Number of strains the growth of which has been inhibited (Candida sp.; Candida sp. after 24 hrs, 3.12 mcg/ml): 3 strains | Number of strains the growth of which has been inhibited (Candida sp.; Candida sp. after 24 hrs, 6.25 mcg/ml): 1 strains | Number of strains the growth of which has been inhibited (Candida sp.; Candida sp. after 24 hrs, 12.5 mcg/ml): 2 strains | Number of strains the growth of which has been inhibited (Candida sp.; Candida sp. after 24 hrs, 25.0 mcg/ml): 0 strains | Number of strains the growth of which has been inhibited (Candida sp.; Candida sp. after 24 hrs, 50.0 mcg/ml): 0 strains | Number of strains the growth of which has been inhibited (Candida sp.; Candida sp. after 48 hrs, 1.56 mcg/ml): 0 strains | Number of strains the growth of which has been inhibited (Candida sp.; Candida sp. after 48 hrs, 3.12 mcg/ml): 3 strains | Number of strains the growth of which has been inhibited (Candida sp.; Candida sp. after 48 hrs, 6.25 mcg/ml): 1 strains | Number of strains the growth of which has been inhibited (Candida sp.; Candida sp. after 48 hrs, 12.5 mcg/ml): 3 strains | Number of strains the growth of which has been inhibited (Candida sp.; Candida sp. after 48 hrs, 25.0 mcg/ml): 1 strains | Number of strains the growth of which has been inhibited (Candida sp.; Candida sp. after 48 hrs, 50.0 mcg/ml): 0 strains | Number of strains the growth of which has been inhibited (Geotrichum sp.; Geotrichum sp. after 24 hrs, 1.56 mcg/ml): 0 strains | Number of strains the growth of which has been inhibited (Geotrichum sp.; Geotrichum sp. after 24 hrs, 3.12 mcg/ml): 2 strains | Number of strains the growth of which has been inhibited (Geotrichum sp.; Geotrichum sp. after 24 hrs, 6.25 mcg/ml): 10 strains | Number of strains the growth of which has been inhibited (Geotrichum sp.; Geotrichum sp. after 24 hrs, 12.5 mcg/ml): 0 strains | Number of strains the growth of which has been inhibited (Geotrichum sp.; Geotrichum sp. after 24 hrs, 25.0 mcg/ml): 0 strains | Number of strains the growth of which has been inhibited (Geotrichum sp.; Geotrichum sp. after 24 hrs, 50.0 mcg/ml): 0 strains | Number of strains the growth of which has been inhibited (Geotrichum sp.; Geotrichum sp. after 48 hrs, 1.56 mcg/ml): 0 strains | Number of strains the growth of which has been inhibited (Geotrichum sp.; Geotrichum sp. after 48 hrs, 3.12 mcg/ml): 0 strains | Number of strains the growth of which has been inhibited (Geotrichum sp.; Geotrichum sp. after 48 hrs, 6.25 mcg/ml): 5 strains | Number of strains the growth of which has been inhibited (Geotrichum sp.; Geotrichum sp. after 48 hrs, 12.5 mcg/ml): 7 strains | Number of strains the growth of which has been inhibited (Geotrichum sp.; Geotrichum sp. after 48 hrs, 25.0 mcg/ml): 0 strains | Number of strains the growth of which has been inhibited (Geotrichum sp.; Geotrichum sp. after 48 hrs, 50.0 mcg/ml): 0 strains | Minimum inhibitory concentration against Candida albicans (Candida albicans [2]): 2 µg/mL (≈ 2.16 µM)

trichomycin
MIC (tested microorganisms; [3]): 0.001 µg/mL
